# Measured values as given in EP1067939B1, “USE OF STEROIDAL ALKALOID DERIVATIVES AS INHIBITORS OF HEDGEHOG PROTEIN SIGNALING PATHWAYS” (The Johns Hopkins University, priority 1998, dated 1999).
# “And” between values parts separate entries of the source, which are not always exact repeats. Identical values can stand only once. Like-named read-outs stand apart in the source and are kept apart here.
# Experiments:
# [1] = test system: primary human lymphoblasts; test: Cholesterol Biosynthesis Assay (sterol profiles of cultured cells); format: cell-based; settings: for Percent Sterols: 2. C28 Sterols / Percent Sterols: 3. C29 Sterols / Percent Sterols: Cholesterol / Percent Sterols: d. Zymosterol / Percent Sterols: e. Cholesta-8(14)-en-3ß-ol / Percent Sterols: f. 7 Dehydrocholesterol / Total Sterols (µg/mg protein) / Percent Sterols: c. Cholesta-7,24-dien-3ß-ol: five days
# rat hepatoma cells = test: Cholesterol Esterification Assay (esterification of plasma membrane cholesterol); format: cell-based
# Source text: Table 1. […] Table 1. Effects of synthetic and plant-derived compounds on cholesterol homeostasis. […]
# chick embryos = test system: chick embryos
# Source text: • 1. M. Hammerschmidt, A. Brook, A. P. McMahon, Trends Genet, 13, 14-21 (1997). • 2. C. Chiang, et al., Nature, 383,407-413 (1996). • 3. Y. Tanabe, T. M. Jessell, Science 274, 1115-1123 (1996). • 4. T. P. Yamaguchi, Curr. Opin. Genet. Dev. 7, 513-518 (1997). • 5. N. Shubin, C. Tabin, S. Carroll, Nature 388, 639-648 (1997). • 6. A. E. Oro, et al., Science 276, 817-821 (1997). • 7. M. M. Cohen, K. K. Sulik, J. Craniofac. Genet. Deve. Biol. 12, 196-244 (1992). • 8. E. Belloni, et al., Nature Genet. 14, 353-356 (1996). • 9. E. Roessler, et al., Nature Genet. 14, 357-360 (1996). • 10. J. A. Porter, et al., Nature 374, 363-366 (1995). • 11. J. A. Porter, K. E. Young, P. A. Beacy, Science 274, 255-259 (1996b). • 12. J. J. Lee, et al., Science 266, 1528-1537 (1994). • 13. J. A. Porter, et al., Cell 86, 21-34 (1996a). • 14. C. Roux, Arch. Franc. Pediatr. 21, 451-464 (1964). • 15. C. Roux, C. R. Soc. Biol. 160, 1353-1357 (1966). • 16. D. B. Dehart, L. Lanoue, G. S. Tinit, K. K. Sulik, Am J. Med. Genet. 68, 328-337 (1997). • 17. M. Kraml, J. F. Bagli, D. Dvornik, Biochem. and Biophysical Res. Com. 15, 455-457 (1964). • 18. J. Avigan, D. Steinberg, H. E. Vroman, M. J. Thompson, E. Mosettig, J. Biol. Chem 235, 3123-3126 (1960). • 19. R. B. Clayton, A. N. Nelson, I. D. Frantz Jr., J. Lipid Res. 4, 166-178 (1963). • 20. J. Aufenanger, J. Pill, K. Stegmeier, F. H. Schmidt, Horm. Metabol. Res. 17, 612-613 (1986). • 21. […] G. Popjak, A. Meenean, E. J. Parish, W. D. Nes, J. Biol. Chem 264,6230-6238 (1989). • 23. H. Yoshikawa, Brain Deve. 13, 115-120 (1991). • 24. R. I. Kelley, et al., Am. J. Of Med. Gen. 66, 478-484 (1996). • 25. G. S. Tint, et al., New England Journal of Medicine 330, 107-113 (1994). • 26. T.E. Willnow, et al., Proc. Natl. Acad. Sci USA 93, 8460-8464 (1996). • 27. S. Stefansson, D. A. Chappell, K. M. Argraves, D. K. Strickland, W. S. Argraves, J. Biol. Chem. 270, 19417-19421 (1995). • 28. W. Binns, L. F. James, J. L. Shupe, G. Everett, Am. J. Vet. Res. 24, 1164-1174 (1963). • 29. R. F. Keeler, W. Binns, Teratology 1, 5-10 (1968). • 30. P. A. Beachy, et al., CSH Symp. Quant. Biol. 62, in press (1997). • 31. […]
# endogenous Shh signaling = test: Midline neural plate/notochord explant assay of endogenous Shh signaling; format: cell-based, chick
# Shh = biological target: T1, Shh (Mus musculus, UniProt Q62226); test: Shh autoprocessing in stably transfected HK293 cells (immunoblot); format: cell-based; settings: added during the 24-hour induction period; doses up to 5-fold higher than those required to completely inhibit Shh signaling
# T1 construct: expressed in transfected cells; host or cells: HK293 cells, Ecdysone-Inducible Mammalian Expression System (Invitrogen)
# T1 sequence (Q62226 25-437): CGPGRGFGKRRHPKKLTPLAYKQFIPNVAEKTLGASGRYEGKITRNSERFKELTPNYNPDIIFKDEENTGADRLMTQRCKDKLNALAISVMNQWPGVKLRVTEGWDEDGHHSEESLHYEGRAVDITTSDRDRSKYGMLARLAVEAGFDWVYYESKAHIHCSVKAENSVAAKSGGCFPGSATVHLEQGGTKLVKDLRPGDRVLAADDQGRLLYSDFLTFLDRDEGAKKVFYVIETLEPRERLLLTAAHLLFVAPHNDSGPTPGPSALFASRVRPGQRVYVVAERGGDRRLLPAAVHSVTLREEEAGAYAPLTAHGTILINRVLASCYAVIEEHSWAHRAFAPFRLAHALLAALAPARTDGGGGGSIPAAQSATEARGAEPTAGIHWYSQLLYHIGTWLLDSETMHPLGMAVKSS
# Source text: To examine potential effects of these compounds on Shh processing we utilized HK293 cells cultured in lipid-depleted serum and carrying a stable integrated construct for expression of Shh under ecdysone-inducible control (47). Shh protein expression in these cells can be induced by addition of muristerone A, an ecdysone analog.
# • 1. M. Hammerschmidt, A. Brook, A. P. McMahon, Trends Genet, 13, 14-21 (1997). • 2. C. Chiang, et al., Nature, 383,407-413 (1996). • 3. Y. Tanabe, T. M. Jessell, Science 274, 1115-1123 (1996). • 4. T. P. Yamaguchi, Curr. Opin. Genet. Dev. 7, 513-518 (1997). • 5. N. Shubin, C. Tabin, S. Carroll, Nature 388, 639-648 (1997). • 6. A. E. Oro, et al., Science 276, 817-821 (1997). • 7. M. M. Cohen, K. K. Sulik, J. Craniofac. Genet. Deve. Biol. 12, 196-244 (1992). • 8. E. Belloni, et al., Nature Genet. 14, 353-356 (1996). • 9. E. Roessler, et al., Nature Genet. 14, 357-360 (1996). • 10. J. A. Porter, et al., Nature 374, 363-366 (1995). • 11. J. A. Porter, K. E. Young, P. A. Beacy, Science 274, 255-259 (1996b). • 12. J. J. Lee, et al., Science 266, 1528-1537 (1994). • 13. J. A. Porter, et al., Cell 86, 21-34 (1996a). • 14. C. Roux, Arch. Franc. Pediatr. 21, 451-464 (1964). • 15. C. Roux, C. R. Soc. Biol. 160, 1353-1357 (1966). • 16. D. B. Dehart, L. Lanoue, G. S. Tinit, K. K. Sulik, Am J. Med. Genet. 68, 328-337 (1997). • 17. M. Kraml, J. F. Bagli, D. Dvornik, Biochem. and Biophysical Res. Com. 15, 455-457 (1964). • 18. J. Avigan, D. Steinberg, H. E. Vroman, M. J. Thompson, E. Mosettig, J. Biol. Chem 235, 3123-3126 (1960). • 19. R. B. Clayton, A. N. Nelson, I. D. Frantz Jr., J. Lipid Res. 4, 166-178 (1963). • 20. J. Aufenanger, J. Pill, K. Stegmeier, F. H. Schmidt, Horm. Metabol. Res. 17, 612-613 (1986). • 21. […] G. Popjak, A. Meenean, E. J. Parish, W. D. Nes, J. Biol. Chem 264,6230-6238 (1989). • 23. H. Yoshikawa, Brain Deve. 13, 115-120 (1991). • 24. R. I. Kelley, et al., Am. J. Of Med. Gen. 66, 478-484 (1996). • 25. G. S. Tint, et al., New England Journal of Medicine 330, 107-113 (1994). • 26. T.E. Willnow, et al., Proc. Natl. Acad. Sci USA 93, 8460-8464 (1996). • 27. S. Stefansson, D. A. Chappell, K. M. Argraves, D. K. Strickland, W. S. Argraves, J. Biol. Chem. 270, 19417-19421 (1995). • 28. W. Binns, L. F. James, J. L. Shupe, G. Everett, Am. J. Vet. Res. 24, 1164-1174 (1963). • 29. R. F. Keeler, W. Binns, Teratology 1, 5-10 (1968). • 30. P. A. Beachy, et al., CSH Symp. Quant. Biol. 62, in press (1997). • 31. E. D. Carstea, et al., Science 277, 228-231 (1997). • 32. S. K. Loftus, et al., Science 277, 232-235 […]. • 33. L. V. Goodrich, L. Milenkovic, K. M. Higgins, M. P. Scott, Science 277, 1109-1113 (1997). • 34. H. Kumagai, K. T. Chun, R. D. Simoni, J. Biol. Chem. 270, 19107-19113 (1995). • 35. G. Gil, J. R. Faust, D. J. Chin, J. L. Goldstien, M. S. Brown, Cell 41, 249-258 (1985). • 36. X. Hua, A. Nohturfft, J. L. Goldstein, M. S. Brown, Cell 87, 415-426 (1996). • 37. M. S. Brown, J. L. Goldstein, Cell 89, 331-340 (1997). • 38. M. M. Bryden, C. Perry, R. F. Keeler, Teratology 8, 18-28 (1973). • 39. M. L. Omnell, F. R. P. Sim, R. F. Keeler, L. C. Harne, K. W. Brown, Teratology 42, 105-119 (1990). • 40. Fertile chick eggs (white leghorn) were placed in a humidified incubator at 37.5° C in a rotating tray for 14 hours. […] The window was taped and the eggs incubated for an additional 4 days. The embryos were dissected in phosphate buffered saline (PBS, pH 7.2).
# His6Hh-C = biological target: T2, His6Hh-C (Drosophila melanogaster, UniProt Q02936); test: In vitro Hh autoprocessing reaction with purified components; format: biochemical
# T2 construct: made in house
# T2 sequence (Q02936 252-471): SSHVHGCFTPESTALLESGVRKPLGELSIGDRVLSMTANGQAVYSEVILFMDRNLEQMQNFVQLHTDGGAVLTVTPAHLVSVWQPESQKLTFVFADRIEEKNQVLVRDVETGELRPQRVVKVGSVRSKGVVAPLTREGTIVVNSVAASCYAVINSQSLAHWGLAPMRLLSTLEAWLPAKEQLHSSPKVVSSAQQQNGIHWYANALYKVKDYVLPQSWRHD
# Shh-N = test: Intermediate neural plate explant response to exogenous Shh-N protein; format: cell-based, chick
# BMP7 = test: Neural plate explant response to BMP7 (migratory HNK-1 positive cells); format: cell-based, chick; settings: 10 µM, 100 ng/ml BMP7, ventral neural plate explants
# Shh protein = Shh protein localization in floor plate cells of treated chick embryos; format: in vivo; settings: embryos treated after floor plate induction
# [2] = read-out: Percent Inhibition (incorporation of label into cholesteryl ester*) ^3H-Cholesterol
# [3] = read-out: Percent Inhibition (incorporation of label into cholesteryl ester*) ^14C-Oleic Acid
compound,measurement,setting,value
"CC1=C2C(=O)[C@H]3[C@@H](CC=C4C[C@@H](O)CC[C@@]43C)[C@@H]2CC[C@]12O[C@@H]1C[C@H](C)CN[C@H]1[C@H]2C [Jervine, jervine]",Percent Sterols: a. Desmosterol,[1],2.7% and 2.5% and 2.4%
same,Percent Sterols: 2. C28 Sterols,[1]; 1.25 µM,1.2%
same,Percent Sterols: 3. C29 Sterols,[1]; 1.25 µM,0.8%
same,Percent Sterols: Cholesterol,[1]; 1.25 µM,90%
same,Percent Sterols: d. Zymosterol,[1]; 1.25 µM,1.7%
same,Percent Sterols: e. Cholesta-8(14)-en-3ß-ol,[1]; 1.25 µM,1.0%
same,Percent Sterols: f. 7 Dehydrocholesterol,[1]; 1.25 µM,1.5%
same,Total Sterols (µg/mg protein),[1]; 1.25 µM,8.8 µg/mg protein
same,Percent Sterols: 2. C28 Sterols,[1]; 2.5 µM,0.7%
same,Percent Sterols: 3. C29 Sterols,[1]; 2.5 µM,0.8%
same,Percent Sterols: Cholesterol,[1]; 2.5 µM,90%
same,"Percent Sterols: c. Cholesta-7,24-dien-3ß-ol",[1]; 2.5 µM,0.5%
same,Percent Sterols: d. Zymosterol,[1]; 2.5 µM,2.0%
same,Percent Sterols: e. Cholesta-8(14)-en-3ß-ol,[1]; 2.5 µM,1.7%
same,Percent Sterols: f. 7 Dehydrocholesterol,[1]; 2.5 µM,1.4%
same,Total Sterols (µg/mg protein),[1]; 2.5 µM,8.4 µg/mg protein
same,Percent Sterols: 2. C28 Sterols,[1]; 5.0 µM,0.7%
same,Percent Sterols: 3. C29 Sterols,[1]; 5.0 µM,1.6%
same,Percent Sterols: Cholesterol,[1]; 5.0 µM,88%
same,"Percent Sterols: c. Cholesta-7,24-dien-3ß-ol",[1]; 5.0 µM,0.5%
same,Percent Sterols: d. Zymosterol,[1]; 5.0 µM,2.3%
same,Percent Sterols: e. Cholesta-8(14)-en-3ß-ol,[1]; 5.0 µM,2.3%
same,Percent Sterols: f. 7 Dehydrocholesterol,[1]; 5.0 µM,1.3%
same,Total Sterols (µg/mg protein),[1]; 5.0 µM,10 µg/mg protein
same,inhibition at 2.5 µM,rat hepatoma cells; [2],24%
same,inhibition at 2.5 µM,rat hepatoma cells; [3],28%
same,inhibition at 5 µM,rat hepatoma cells; [2],44%
same,inhibition at 5 µM,rat hepatoma cells; [3],36%
same,inhibition at 10 µM,rat hepatoma cells; [2],50%
same,inhibition at 10 µM,rat hepatoma cells; [3],49%
same,Holoprosencephaly induced in chick embryos,"chick embryos; in ovo exposure at the intermediate to definitive streak stage, Fig. 2: 10 µM jervine",induced external malformations characteristic of HPE
same,embryos displayed normal morphology,"chick embryos; in ovo, highest concentrations tested, 50µM",5/10
same,Higher doses that fully inhibit HNF3β and Isl-1 induction,endogenous Shh signaling,4.0 µM
same,Intermediate doses that block induction of HNF3β while permitting induction of Isl-1,endogenous Shh signaling,0.5 µM
same,Shh-Np production and accumulation of unprocessed precursor,Shh,did not diminish Shh-Np production nor induce accumulation of unprocessed precursor
same,His6Hh-C autocleavage reaction in the presence of compound without sterol,His6Hh-C,does not proceed
same,interference with cholesterol-stimulated autoprocessing,His6Hh-C,does not interfere with autoprocessing
same,concentration that inhibits the repression of Pax7 expression by 2 nM Shh-N,Shh-N,0.125 µM
same,doses at which HNF3β and Isl-1 induction are completely blocked,Shh-N,0.5 µM
same,intermediate levels at which induction of HNF3β is blocked while induction of Isl-1 is maintained or expanded,Shh-N,0.25 µM
same,Induction of migratory HNK-1 positive cells by BMP7,BMP7,not inhibited
same,localization of Shh protein within floor plate cells,Shh protein,normal apical localization of Shh protein
